Assay results as given in EP2532242A1, “Use of bispyridiniumalkanes for killing spores” (L'AIR LIQUIDE, SOCIETE ANONYME POUR L'ETUDE ET …, priority 2011, dated 2012).

Assays:
[1] = tested on: spores; details: prior art; cited from earlier work
[2] = tested on: Bacillus subtilis ATCC 6633; assay: Concentration test spores of Bacillus subtilis (method B), with and without lysozyme; type: cell-based; details: use concentration of 0.001% (Figure 2)
Experimental: • fixed pipettes 1 ml; 500 µl, and 100 µl • sterile glass pipettes 10 ml • sterile spatulas • sterile Schott bottles • water bath 30°C • CSA-agar + TLSH (Tween 80 3%; lecithin 0.3%; saponin 3%, histidine 0.1%) • Bacillus subtilis ATCC 6633 stored in a) H2O or b) ethanol
Spore samples are provided commercially, sometimes as ethanolic solution (40% ethanol in water).
Germination medium: + TLSH:
The germ count of the ordered spore solution is ascertained prior to the start of the experiment by means of plating out and counting and, if appropriate, the spore suspension is diluted. On the day of the experiment, a starting germ count (SGC) is again generated from the spore suspension used. By means of spore counting under the microscope in a Helber chamber, a comparison is drawn between spores which are actually present and the number of germinating spores. The starting spore count should be ca. 1 × 10^7 CFU/ml. With the help of the malachite green coloration, adequate sporulation of the spore suspension used was verified by means of light microscopy.
Samples are taken regularly over several weeks. The experimental solutions stand in the dark at room temperature during the action times.
In each case 50 ml per solution to be investigated are pipetted into a sterile Schott bottle, inoculated with 50 µl of spore suspension and incubated at room temperature. […]

Row | Compound | germination of spores [1] | killing of spores [1] | effect against B. subtilis ATCC 6633 [2] | time after which the effect can be detected [2]
1 | CCCCCCCCCC[N+](C)(C)CCCCCCCCCC.[Cl-] [didecyldimethylammonium chloride] | prevent the germination of spores | do not kill them | – | –
2 | CCCCCCCCN=c1ccn(CCCCCCCCCCn2ccc(=NCCCCCCCC)cc2)cc1.Cl.Cl [octenidine, N,N'-(1,10-decanediyldi-1[4H]-pyridinyl-4-ylidene)bis(1-octanamine) dihydrochloride] | – | – | effective | after just one day
3 | benzalkonium chloride | prevent the germination of spores | spores are not killed | – | –
